Results: patent publication US20230107216A1, “PANTETHEINE DERIVATIVES AND USES THEREOF” (Comet Therapeutics, Inc., priority 2018, published 2023)
Where two headings read alike, the source gives them in different places.

Tests used:
[1] = tested on: monocyte-derived M1 macrophages; assay: M1 differentiation assay (macrophage TNFα, IL6, IL10 ELISA, FACS); assay type: cell-based, human; details: for % Increase in Live Macrophage Cells / activation at 10 µM / inhibition at 10 µM: 10 uM; for activation at 10 µM / activation at 50 µM: read-out: % Increase in IL-10 Secretion
Outline: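 CD14+ human blood monocytes (100,000) differentiated 6 days with 10 ng/ml GM-CSF plus compound at 10 or 50 μM, refreshed days 2 and 4. Matured 24 h with GM-CSF, IFNγ, LPS plus compound. Supernatant TNFα, IL6, IL10 by ELISA; FACS M1 phenotype CD86+CD68+CD163−.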

HepG2 cells = assay: MitoBiogenesis In-Cell ELISA (COX-I, SDH-A); assay type: cell-based; details: Homo sapiens, 168 h, 7 days, read-out: % increase in Mitochondrial Biogenesis
Outline: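 HepG2 cells were plated, adhered overnight at 37 °C/5% CO2, then exposed to test compounds (50–10 μM) in DMEM with 10% FBS for 7 days without media change; vehicle was 0.2% DMSO. COX-I and SDH-A were measured by in-cell ELISA and reported as signal relative to vehicle, n=2.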

[2] = tested on: Peripheral blood mononuclear cells co-cultured with venular endothelial cells (HUVEC) (LPS system); assay: BioMAP LPS system; assay type: cell-based, human; details: procedure of Example 827
[3] = tested on: Dermal fibroblasts (HDF3CGF system); assay: BioMAP HDF3CGF system (IL-1β, TNFα, IFNγ, EGF, bFGF, PDGF-BB); assay type: cell-based, human; details: for % decrease in Collagen I: procedure of Example 833
[4] = tested on: Peripheral blood mononuclear cells co-cultured with B-cells (BT system)
[5] = Homo sapiens, Macrophage, read-out: % decrease in Macrophage IL-6 Secretion
[6] = Homo sapiens, Macrophage, read-out: % decrease in Macrophage TNFα Secretion
[7] = Homo sapiens, Macrophage, 50 uM
[8] = Homo sapiens, HUVEC, 24 h, 1 uM, read-out: % decrease in IL-1α
[9] = Homo sapiens, HUVEC, 24 h, 10 uM, read-out: % decrease in IL-8
[10] = Homo sapiens, HUVEC, 24 h, 10 uM, read-out: % decrease in sPGE2
[11] = Homo sapiens, Fibroblast, 24 h, 10 uM, read-out: % decrease in Collagen III
[12] = Homo sapiens, HUVEC, 24 h, 1 uM, read-out: % decrease in IL-8
[13] = Homo sapiens, HUVEC, 24 h, 10 uM, read-out: % decrease in TissueFactor
[14] = 10 uM, procedure of Example 829
[15] = Homo sapiens, HUVEC, 24 h, 1 uM, read-out: % decrease in sPGE2

With `CC(C)C(=O)CC(=O)SCCNC(=O)CCNC(=O)[C@H](O)C(C)(C)CO` [Compound 1239, (R)—S-(2-(3-(2,4-dihydroxy-3,3-dimethylbutanamido)propanamido)ethyl) 4-methyl-3-oxopentanethioate] the “% Increase in Live Macrophage Cells” value [1] was no less than 20%, the activation at 10 µM ([1]; Homo sapiens, Macrophage) was no less than 30% and the inhibition at 10 µM [1, 5] was no less than 30%. It also gave an inhibition at 10 µM [1, 6] of no less than 30% and an activation at 10 µM (HepG2 cells) greater than 5%.
Compound `CC(O)C(C(=O)SCCNC(=O)CCNC(=O)[C@H](O)C(C)(C)CO)C(C)O` (stereo partly drawn) [Compound 1285, (2R)-2,4-dihydroxy-N-[2-[(2-[[3-hydroxy-2-(1-hydroxyethyl)butanoyl]sulfanyl]ethyl)carbamoyl]ethyl]-3,3-dimethylbutanamide] has an activation at 50 µM (HepG2 cells) greater than 10%.
For `CC(C)(CO)[C@@H](OC(=O)CCC(=O)O)C(=O)NCCC(=O)NCCS` [Compound 1311, (R)-4-((4-hydroxy-1-((3-((2-mercaptoethyl)amino)-3-oxopropyl)amino)-3,3-dimethyl-1-oxobutan-2-yl)oxy)-4-oxobutanoic acid], the “% decrease in IL-10 Secretion” value ([1]; 50 uM) was no less than 30%, the inhibition at 10 µM [1, 5] was no less than 30% and the inhibition at 10 µM [1, 6] was no less than 30%. The activation at 50 µM [1, 7] was no less than 30% and the activation at 10 µM (HepG2 cells) was 5%.
With `CC(C)(CO)[C@@H](O)C(=O)NCCC(=O)NCCSC(=O)[C@@H](N)Cc1ccc(O)c(O)c1` [Compound 371, (2R)—N-[2-[(2-[[(2S)-2-amino-3-(3,4-dihydroxyphenyl)propanoyl]sulfanyl]ethyl)carbamoyl]ethyl]-2,4-dihydroxy-3,3-dimethylbutanamide] the “% decrease in sTNFα” value ([2]; 10 uM) was no less than 10%, the inhibition at 1 µM [2, 8] was no less than 10% and the inhibition at 10 µM [2, 9] was no less than 10%. The inhibition at 10 µM [2, 10] was no less than 10%, the “% increase in PAI-I” value ([3]; 10 uM) was no less than 10% and the “% decrease in Collagen I” value ([3]; 10 uM) was no less than 10%. For the same compound, the inhibition at 10 µM [3, 11] was no less than 10%, the “% increase in sIL-2” value ([4]; 1 uM, procedure of Example 829) was no less than 20% and the “% increase in PBMC cytotoxicity” value ([4]; human, 72 h, 10 µM) was no less than 10%.
In the case of `COC(=O)C(C)C(=O)SCCNC(=O)CCNC(=O)[C@H](O)C(C)(C)CO` (some centres unmarked) [Compound 405], the “% decrease in IL-10 Secretion” value ([1]; 50 uM) is reported as no less than 30%, the “% decrease in Live Macrophage Cells” value ([1]; 50 uM) is reported as no less than 20% and the activation at 10 µM ([1]; Homo sapiens, Macrophage) is reported as no less than 30%. The inhibition at 10 µM [1, 5] was no less than 30%, the inhibition at 10 µM [1, 6] was no less than 30% and the activation at 50 µM (HepG2 cells) was greater than 5%.
Work on `COC(=O)CCC(=O)SCCNC(=O)CCNC(=O)[C@H](OC(=O)CN)C(C)(C)CO` [Compound 1294, methyl 4-[(2-[3-[(2R)-2-[(2-aminoacetyl)oxy]-4-hydroxy-3,3-dimethylbutanamido]propanamido]ethyl)sulfanyl]-4-oxobutanoate] yielded an inhibition at 1 µM [2, 12] of no less than 10%, an activation at 1 µM ([2]; Homo sapiens, HUVEC, 24 h, 1 uM, read-out: % increase in sTNFα) of no less than 10% and an inhibition at 10 µM [2, 13] of no less than 10%. It also gave an inhibition at 10 µM [2, 10] of no less than 10%, an inhibition at 1 µM ([3]; Homo sapiens, Fibroblast, 24 h, 1 uM, read-out: % decrease in Collagen III) of no less than 10% and an activation at 10 µM ([3]; Homo sapiens, Fibroblast, 72 h, 10 uM, read-out: % increase in 72 Hour Proliferation) of no less than 20%. For the same compound, the “% increase in B-cell Proliferation” value ([4]; 1 uM, procedure of Example 829) was no less than 10% and the “% decrease in sIL-2” value [4, 14] was no less than 10%.
With `COC(=O)CCC(=O)SCCNC(=O)CCNC(=O)[C@H](O)C(C)(C)COC(C)=O` [Compound 138] the “% increase in Tissue Factor” value ([2]; 1 uM) was no less than 10%, the inhibition at 1 µM [2, 15] was no less than 10% and the “% decrease in Collagen I” value ([3]; 1 uM) was no less than 10%. The “% decrease in sIL-2” value ([4]; 1 uM, procedure of Example 829) was no less than 10% and the “% decrease in sTNFα” value ([4]; 1 uM, procedure of Example 829) was no less than 20%.
With `COC(=O)CCC(=O)SCCNC(=O)CCNC(=O)[C@H](O)C(C)(C)CO` [Compound 4, Methyl (R)-4-((2-(3-(2,4-dihydroxy-3,3-dimethylbutanamido)propanamido)ethyl)thio)-4-oxobutanoate] the inhibition at 10 µM [1, 6] was no less than 30% and the activation at 50 µM (HepG2 cells) was greater than 5%.
In the case of `CC(=O)SCCNC(=O)CCNC(=O)[C@H](O)C(C)(C)COC(=O)[C@@H](N)Cc1ccc(O)c(O)c1` [Compound 498, (3R)-3-[(2-[[2-(acetylsulfanyl)ethyl]carbamoyl]ethyl)carbamoyl]-3-hydroxy-2,2-dimethylpropyl (2S)-2-amino-3-(3,4-dihydroxyphenyl)propanoate], the “% decrease in sTNFα” value ([2]; 1 uM) is reported as no less than 10%, the inhibition at 1 µM [2, 12] is reported as no less than 20% and the inhibition at 1 µM [2, 15] is reported as no less than 10%. The inhibition at 10 µM ([2]; Homo sapiens, HUVEC, 24 h, 10 uM, read-out: % decrease in IL-1α) was no less than 10%, the “% decrease in TIMP-2” value ([3]; 1 uM) was no less than 10% and the “% increase in M-CSF” value ([3]; 10 uM) was no less than 10%. For the same compound, the “% increase in SRB” value ([3]; 10 uM) was no less than 10%, the “% decrease in Collagen I” value ([3]; 10 uM) was no less than 10% and the inhibition at 10 µM [3, 11] was no less than 10%. The “% increase in sTNFα” value ([4]; 1 uM, procedure of Example 829) was no less than 10% and the “% increase in sIL-2” value [4, 14] was no less than 20%.
`C/C=C/C(=O)SCCNC(=O)CCNC(=O)[C@H](O)C(C)(C)COP(=O)(O)O` [Compound 82, (R)—S-(2-(3-(2-hydroxy-3,3-dimethyl-4-(phosphonooxy)butanamido)propanamido)ethyl) (E)-but-2-enethioate] was tested, and the inhibition at 10 µM [1, 6] was no less than 30%, the inhibition at 50 µM ([1]; Homo sapiens, Macrophage, 50 uM, read-out: % decrease in Macrophage IL-6 Secretion) was no less than 30% and the activation at 50 µM (HepG2 cells) was greater than 10%.
Compound `CCCCCCC(=O)SCCNC(=O)CCNC(=O)[C@H](O)C(C)(C)CO` [Compound 372, (2R)—N-(2-[[2-(heptanoylsulfanyl)ethyl]carbamoyl]ethyl)-2,4-dihydroxy-3,3-dimethylbutanamide] has an inhibition at 1 µM [2, 8] of no less than 10%, an inhibition at 10 µM [2, 9] of no less than 20% and an inhibition at 10 µM [2, 13] of no less than 10%. The activation at 10 µM ([2]; Homo sapiens, HUVEC, 24 h, 10 uM, read-out: % increase in sTNFα) was no less than 10%, the “% increase in PAI-I” value ([3]; 10 uM) was no less than 10% and the inhibition at 10 µM [3, 11] was no less than 10%. The “% increase in sIL-2” value ([4]; 1 uM, procedure of Example 829) was no less than 10% and the “% increase in sIL-17” value [4, 14] was no less than 20%.
In the case of `CCC(C)C(=O)CC(=O)SCCNC(=O)CCNC(=O)[C@H](O)C(C)(C)CO` (stereo partly drawn) [Compound 1240, S-(2-(3-((R)-2,4-dihydroxy-3,3-dimethylbutanamido)propanamido)ethyl) 4-methyl-3-oxohexanethioate], the “% Increase in Live Macrophage Cells” value [1] is reported as no less than 20%, the inhibition at 10 µM [1, 5] is reported as no less than 30% and the inhibition at 10 µM [1, 6] is reported as no less than 30%. The activation at 50 µM [1, 7] was no less than 30% and the activation at 50 µM (HepG2 cells) was greater than 20%.
